From a melting point compilation (Tetko et al.; mined from patent text by program, amines drawn as free bases though some values may be those of a salt)

Row | melting point | Compound
1 | 85 °C | CCCC(=NOCC)C1=C(O)CC(C2(C)CC(C(C)C)=NO2)CC1=O (stereo not given)
2 | 144 to 146 °C | CCCCCCCCNC(=O)CSc1nc(Cl)cc(Nc2cccc(C)c2C)n1
3 | 164 to 166 °C | Cn1cc(-c2ccccc2)c(=O)c(-c2cccc(C#N)c2)c1
4 | 147 to 148 °C | [N-]=[N+]=NCCOc1ccc(F)c2c1CC(=O)N2
5 | 281 to 283 °C | CC1Cc2cc3c(cc2C(c2ccc([N+](=O)[O-])cc2)=NN1C(=S)NC(=O)NC1CC1)OCO3 (stereo not given)
6 | > 240 °C | Nn1c(=O)c(=O)[nH]c2ccc3ccc([N+](=O)[O-])cc3c21
7 | 170 to 173 °C | O=C1CCCc2ccc(O)cc21
8 | 45 °C | CCCCCCOc1ccc(C=[N+]([O-])CCC)cc1
9 | 171 to 173 °C | CC(C)(C)OC(=O)N1CCN(C(=O)N2CCOCC2)CC1
10 | 169 to 170 °C | CC1(C)[C@@H]2CC3[C@H](C(=O)NCC(N)=O)[C@@]3(C)C[C@@H]21 (stereo not given in full)
11 | 148 °C | Clc1ccc(Cn2cc(CN3CCC(c4ccccc4)(c4ccccc4)CC3)nn2)cc1
12 | 151 to 153 °C | CC(C)C[C@H](NC(=O)c1cc2ccccc2o1)C(=O)N[C@H]1CC[C@@H](C)N(S(=O)(=O)c2ccccn2)CC1=O
13 | 77 to 80 °C | COc1cc(CC(=O)N[C@@H](COC(=O)C(C)(C)C)Cc2ccccc2)ccc1OCCN=[N+]=[N-]
14 | 172 to 174 °C | C=CCOc1ccc(C(C)(C)C)cc1C(C(N)=O)c1ccccc1 (stereo not given)
15 | 119 °C | CS(=O)(=O)Nc1cc2c(cc1Oc1ccc(F)cc1F)C(O)CC2 (stereo not given)
16 | 67 to 70 °C | CC(C)(CO)Oc1ccc(COc2ccc(Cl)cc2)cc1
17 | 195 to 197 °C | CCCCc1oc2ccccc2c1C(=O)NCc1ccc2c(-c3ccc(C(C)(C)C)cc3)c(O)ccc2c1

Row | melting point | Compound
18 | 114 to 118 °C | CN(CCCCCCC(=O)O)c1cnc(-c2ccccc2)c(-c2ccccc2)n1
19 | 159 to 162 °C | O=C(NS(=O)(=O)Cl)Oc1c(-c2ccccc2)cccc1-c1ccccc1
20 | 210 to 212 °C | Cc1cc(Oc2ccc([N+](=O)[O-])cc2)c2cc3c(cc2n1)OCO3
21 | 160 to 162 °C | O=C(O)Cc1cccc(C(=O)c2ccccc2)c1[N+](=O)[O-]
22 | 117 to 126 °C | CCc1nc2c(C)cc(C)nc2n1Cc1ccc(C(c2ccccc2)C(Br)C(=O)O)cc1 (stereo not given)
23 | > 350 °C | COC(=O)Oc1cc2c(c(O)c1C)C(=O)c1c(OC)c3c(c(O)c1C2=O)-c1c(cc2cnn(-c4ccccc4)c(=O)c2c1O)CC3
24 | 61 to 63 °C | ONCC1CCCCC1
25 | 128 to 130 °C | C#CC(C)(C)N=C(NC#N)SC
26 | 173 to 175 °C | CC(=O)N1CCC(N(C)C(=O)c2ccc3nonc3c2)CC1
27 | 99 to 100 °C | COc1cc(CCCO)ccc1OCc1nc(-c2ccco2)oc1C
28 | 208 to 209 °C | O=S1(=O)Oc2ccccc2Nc2ncccc21
29 | 58 to 58.5 °C | CSc1ccc2n1CCC2C#N (stereo not given)
30 | 242 to 243 °C | Cc1c2c(cc3c(=O)c4ccccc4oc13)CC(CO)O2 (stereo not given)
31 | 232 to 233 °C | CS(=O)(=O)c1ccc(Oc2cc(OCc3ccccc3)c3[nH]c(C(=O)O)cc3c2)cc1
32 | 248 to 249 °C | CC(C)n1nc(-c2sc(C(=O)NCC(N)=O)nc2-c2ccccc2)ccc1=O
33 | 219 to 222 °C | CC1CCCN(C(=O)C2Cc3ccc(F)cc3N2c2ccc(=O)n(C)n2)C1 (stereo not given)

Second part, the compound before the results:

Row | Compound | melting point
34 | CCN(CC)c1ccc(/C=C/c2cc(/C=C/c3ccc4cc[nH]c4c3)[nH]n2)c(OC)c1 | 104 to 108 °C
35 | O=C(CCCl)Nc1ccc2[nH]ncc2c1 | 158 to 160 °C
36 | O=C1C(CCO)Oc2ccccc2N1Cc1cccc([N+](=O)[O-])c1 (stereo not given) | 128 to 130 °C
37 | Cc1cc(C)nc(NC(=O)NS(=O)(=O)c2ccccc2OCCO)n1 | 183 to 190 °C
38 | O=C(O)CCCOc1ccc(OCc2ccccc2)cc1 | 125 to 126 °C
39 | CCOC(=O)C(C(=O)OCC)=C1NC(=O)N(c2ccc([N+](=O)[O-])cc2OC)C1=O | 170 to 172 °C
40 | CCCCCc1cccc2c1C(=O)N(OC1C(O)C(CO)OC1n1cnc3c(N)ncnc31)C2=O (stereo not given) | 159 to 160 °C
41 | CSc1nc(NN)c(C#N)c(N2CCc3ccccc3CC2)n1 | > 200 °C
42 | O=C(CC1CCC2(CC1)OOC1(CCCCCCCCCCC1)OO2)N1CCS(=O)(=O)CC1 | 170 to 172 °C
43 | CNC(=O)c1cccc(C(O)c2ccc(F)cc2)c1 (stereo not given) | 138 to 139 °C
44 | Cc1cc(N)c(F)cc1Br | 57 °C
45 | COc1cc2ccc3c4cc5c(cc4cnc3c2cc1OC)OCO5 | 275 to 277 °C
46 | CCOC(O)C(F)(F)C(F)(F)C(F)(F)C(F)(F)C(O)OCC (stereo not given) | 110 to 111 °C
47 | CN(C)c1nccc(N2CCN(C=O)CC2)n1 | 116 °C
48 | Cc1ccc(-c2ccc(S(C)(=O)=O)cc2)n1-c1ccc(-c2ccc[nH]2)cc1 | 225 to 227 °C
49 | CC(C)(C)OC(=O)N1CCc2cc(-c3ccc(Cl)cc3)ccc2C1 | 88.5 to 90.5 °C
50 | CS(=O)(=O)c1ccc(-c2cc(F)c(F)cc2-c2ccc(F)c(Cl)c2)cc1 | 172 °C
51 | CC(C)(C)OC(=O)Cn1c(C(=O)O)cc2ccccc21 | 156 to 157 °C
52 | O=C(Nc1ccc(OC(F)(F)F)cc1)NC1CCN(C(=O)C2CC2)CC1 | 195 to 196 °C
53 | O=C(Cc1cc(F)cc(F)c1)NCC(=O)N[C@@H]1C(=O)Nc2ccccc2S[C@@H]1c1ccccc1 | 125 to 130 °C
54 | Cc1cc(C)c2c(=O)[nH]c(-c3cc(C)c(OCCO)c(C)c3)nc2c1 | 260 to 261 °C
55 | CCCCCCCCN(CCCCCCCC)c1nc(Nc2ccc3nc(S)sc3c2)nc(N(CCCCCCCC)CCCCCCCC)n1 | 81 to 83 °C
56 | CCOC(=O)c1ccc2c(c1)S(=O)c1cc([N+](=O)[O-])ccc1-2 (stereo not given) | 245 to 250 °C

Row | Compound | melting point
57 | ON=C1C2CCC1CN(Cc1ccccc1)C2 | 92 to 95 °C
58 | O=C1NC(=O)c2c1c(-c1ccccc1)cc1c2c2cc(O)ccc2n1CCn1ccnc1 | > 345 °C
59 | COc1cc(S(=O)(=O)C(c2cc(F)ccc2F)c2cc(N)ncc2Cl)ccc1Cl (stereo not given) | 198 to 200 °C
60 | CCOC(=O)C1=C(CCC(OC(=O)c2ccc([N+](=O)[O-])cc2)c2ccccc2)NC(C)=C(C(=O)OC)C1c1cccc([N+](=O)[O-])c1 (stereo not given) | 75 to 90 °C
61 | O=S(=O)(/C=C/c1ccc(Br)cc1)CS(=O)(=O)/C=C/c1ccc(Br)cc1 | 213 to 215 °C
62 | CC1(C)C(=O)NC(=O)c2c1ccc1nc(Nc3c(Cl)cccc3Cl)[nH]c21 | 290 to 292 °C
63 | CC(C(=O)O)c1cc(Cl)c(N2CCOCC2)cc1O (stereo not given) | 198 to 200 °C
64 | COc1cc(C(=O)NC2CC(C)(C)N(C)C(C)(C)C2)ccc1-c1nc2cc(Cl)c(Cl)cc2n1C | 178 to 180 °C
65 | C[C@@H](n1ccn(-c2ccc(-n3nccn3)cc2)c1=O)[C@](O)(Cn1cncn1)c1ccc(F)cc1F | 182 to 185 °C
66 | C#CCOc1cc(N)c(F)cc1Cl | 61 to 61.5 °C
67 | Cc1cc(N(C)Cc2ccc(-c3ccc(C(F)(F)F)cc3)nc2)ccc1OCC(=O)O | 199 °C
68 | O=C1NCCc2c(-c3cccnc3)[nH]c3cccc1c23 | 260 to 262 °C
69 | O=C(O)Cc1ccc(Oc2ccc(Cl)cc2)cc1 | 98 to 100 °C
70 | COc1ccc2c(c1)NC1(CCN(C)CC1)c1cccn1-2 | 124 to 125 °C
71 | Cc1ccccc1C1c2cc(Cl)ccc2OC(=O)C1C(=O)N(C)Cc1cc(C(F)(F)F)cc(C(F)(F)F)c1 (stereo not given) | 148 to 149 °C
72 | CCOC(=O)c1c(OCC)c2ccc(C)nc2n(CC)c1=O | 77 to 79 °C
73 | CCc1c(N)nc(-c2ccc(C(F)(F)F)cc2)nc1C(=O)OC | 123 to 124 °C
74 | CCCCCc1scc(C(=O)OC)c1NC1=CC(=O)N(CCC)C1 | > 285 °C
75 | Cc1cc(C)n(-c2ccc(OC=C3C=CC=CC3n3nnn(C)c3=O)c(Cl)c2)n1 (stereo not given) | 122 to 124 °C
76 | CC(O)C(=O)NC1CCC(CC2CCC(NC(=O)C(C)O)CC2)CC1 (stereo not given) | 195 to 199 °C
77 | CCOC1CC(c2ccccc2)Oc2c1ccc1c2nc(C)n1C (stereo not given) | 177 to 178 °C
78 | COC=C(C(=O)OC)c1ccccc1CC(=O)c1ccccc1 | 97 to 99 °C
79 | CCOC(=O)C(=O)/C=C/c1ccc(OCc2nc(-c3ccccc3)oc2C)cc1 | 110 to 111 °C

Row | Compound | melting point
80 | Brc1ccc2c(ccc3cc(Br)ccc32)c1 | 163 to 166 °C
81 | CCN(CC)C(=O)Cc1c(-c2ccc(F)cc2)nc2c(C)cc(C)nn12 | 139 to 143 °C
82 | Cc1cc2c(cc1C)Sc1cscc1C(=O)N2 | 264 to 265 °C
83 | CCC1(C)Cc2cc(OC)c(Cl)c(Cl)c2C1=O (stereo not given) | 121 °C
84 | NC(CF)(Cc1ccc(O)c(O)c1)C(=O)O (stereo not given) | 230 °C
85 | COc1ccc(N2CCN(c3c(C)c(C)c4c(c3C)C(CN3CCCC3)C(C)(C)O4)CC2)cc1 (stereo not given) | 94 to 96 °C
86 | COc1ccnc(NC(=O)NS(=O)(=O)c2ccccc2-c2nn(C)c(=O)o2)n1 | 223 to 224 °C
87 | c1ccc(-c2noc(-c3cccc4ccccc34)n2)nc1 | 132 to 136 °C
88 | CCCNC(=O)c1nc2n(c1C)CCc1ccccc1C2OC1CCN(C)CC1 (stereo not given) | 60 °C
89 | CCn1cc(-c2c(-c3ccccc3)nn3ccncc23)ccc1=O | 192 to 193 °C
90 | CCc1nc2ccccc2c(=O)n1CCCOc1ccc(SC(C)(C)C(=O)O)cc1 | 156 to 158 °C
91 | CNC(=O)Oc1ccccc1Cl | 90 to 91 °C
92 | CCNC(=O)N(c1ccc(C(O)(C(F)(F)F)C(F)(F)F)cc1)S(C)(=O)=O | 161 to 164 °C
93 | Cc1ncc(CN2CCCNC2=C[N+](=O)[O-])s1 | 204 to 207 °C
94 | CS(=O)(=O)Cc1cccc(-c2nc(=O)c3ccccc3s2)n1 | 230 to 232 °C
95 | CCCN(CC)C(C)CN1CCc2c(c(=O)oc3cc(OC)c(OC)cc23)C1 (stereo not given) | 93 to 96 °C
96 | NC(=O)N1CCC(O[N+](=O)[O-])CC1 | 110 to 111 °C
97 | CCNC(=O)[C@H]1N(C(=O)[C@@H](OC(C)=O)[C@H](Cc2ccccc2)NC(=O)c2cc(C)cc(OC(C)=O)c2C)CC(F)(F)C1(C)C | 88 to 93 °C
98 | COc1ccc2c(c1)CCC1=C2CCC2(C(C)C)C(=O)CCC12 (stereo not given) | 85 to 100 °C
99 | OCc1cc(OCc2ccccc2)nn1C1CCCCC1 | 195 to 196 °C
100 | Nc1ccc2c(c1)CCC1CC(=O)NN=C21 (stereo not given) | 290 to 291 °C
